Laboratory results reported in patent publication EP4806900A2, “RAS INHIBITORS” (Revolution Medicines, Inc., priority 2019, dated 2021).

Test system: NCI-H358 (K-Ras G12C)
Assay: CellTiter-Glo cell viability assay, NCI-H358
Assay type: cell-based, human
Settings: Homo sapiens, NCI-H358, Table 5; read-out: H358 Cell Viability assay data (K-Ras G12C, IC50)
Description: Note - The following protocol describes a procedure for monitoring cell viability of K-Ras mutant cancer cell lines in response to a compound of the invention. Other RAS isoforms may be employed, though the number of cells to be seeded will vary based on cell line used.
Test compounds (132.5 nL) were directly dispensed into the assay plates containing cells. […] On day 5, assay plates and their contents were equilibrated to room temperature for approximately 30 minutes. […] Luminescence was measured using the PerkinElmer Enspire. Data were normalized by the following: (Sample signal/Avg. DMSO)*100. The data were fit using a four-parameter logistic fit.

**Q.** For `CO[C@@H](C)c1ncccc1-c1c2c3cc(ccc3n1CC(F)(F)F)-c1cc(cc(C(F)F)c1)C[C@H](NC(=O)[C@H](C(C)C)N(C)C(=O)[C@H]1CCN(C(=O)C#CC(C)(C)N3CCC3)C1)C(=O)N1CCC[C@H](N1)C(=O)OCC(C)(C)C2` (atropisomer, axis not shown) [Compound A370], which IC50 is on record?
**A.** < 0.01 µM

**Q.** How did the IC50 turn out when `CCn1c(-c2cccnc2[C@H](C)OC)c2c3cc(ccc31)-c1cccc(c1)C[C@H](NC(=O)[C@H](C1CCCC1)N(C)C(=O)[C@@H]1CN(C(=O)C#CC(C)(C)N(C)C)C[C@@H]1C)C(=O)N1CCC[C@H](N1)C(=O)OCC(C)(C)C2` (atropisomer, axis not shown) [Compound A391] was run?
**A.** < 0.01 µM

**Q.** `C=CC(=O)N1CC(CN2C(=O)O[C@H](C)[C@H]2C(=O)N[C@H]2Cc3cccc(c3)-c3ccc4c(c3)c(c(-c3cccnc3[C@H](C)OC)n4CC)CC(C)(C)COC(=O)[C@@H]3CCCN(N3)C2=O)C1` (atropisomer, axis not shown) [Compound A460] was tested. Which IC50 did it give?
**A.** > 1 µM

**Q.** How did the IC50 turn out when `CCn1c(-c2cccnc2[C@H](C)OC)c2c3cc(ccc31)-c1cc(cc(C(F)F)c1)C[C@H](NC(=O)[C@H](C(C)C)N(C)C(=O)[C@H]1CCN(C(=O)C#CC(C)(C)N3CCC3)C1)C(=O)N1CCC[C@H](N1)C(=O)OCC(C)(C)C2` (atropisomer, axis not shown) [Compound A466] was run?
**A.** < 0.01 µM

**Q.** For `C=CC(=O)N1CC[C@H](C(=O)N(C)[C@H](C(=O)N[C@H]2CC3=CCCN(C3)c3ccc4c(c3)c(c(-c3cccnc3[C@H](C)OC)n4CC)CC(C)(C)COC(=O)[C@@H]3CCCN(N3)C2=O)C(C)C)C1` (atropisomer, axis not shown) [Compound A486], which IC50 is on record?
**A.** 0.1 to 1 µM

**Q.** For `C=CC(=O)N1CC[C@@H](C(=O)N(C)[C@H](C(=O)N[C@H]2Cc3cccc(c3)-c3ccc4c(c3)c(c(-c3cccnc3[C@H](C)OC)n4CC)CC(C)(C)COC(=O)[C@@H]3CCCN(N3)C2=O)C(C)C)C1` (atropisomer, axis not shown) [Compound A488], which IC50 is on record?
**A.** < 0.01 µM

**Q.** For `CO[C@@H](C)c1ncccc1-c1c2c3cc(ccc3n1CC(F)(F)F)-c1csc(n1)C[C@H](NC(=O)[C@H](C(C)C)N(C)C(=O)N1C[C@@H]3OCCN(C(=O)/C=C/CF)[C@@H]3C1)C(=O)N1CCC[C@H](N1)C(=O)OCC(C)(C)C2` (atropisomer, axis not shown) [Compound A571], which IC50 is on record?
**A.** < 0.01 µM

**Q.** For `CO[C@@H](C)c1ncccc1-c1c2c3cc(ccc3n1CC(F)(F)F)-c1csc(n1)C[C@H](NC(=O)[C@H](C(C)C)N(C)C(=O)N1C[C@@H]3OCCN(C(=O)/C=C/C(F)F)[C@@H]3C1)C(=O)N1CCC[C@H](N1)C(=O)OCC(C)(C)C2` (atropisomer, axis not shown) [Compound A572], which IC50 is on record?
**A.** < 0.01 µM

**Q.** With `CO[C@@H](C)c1ncccc1-c1c2c3cc(ccc3n1CC(F)(F)F)-c1csc(n1)C[C@H](NC(=O)[C@H](C(C)C)N(C)C(=O)N1C[C@@H]3OCCN(C(=O)/C=C/CN(C)C)[C@@H]3C1)C(=O)N1CCC[C@H](N1)C(=O)OCC(C)(C)C2` (atropisomer, axis not shown) [Compound A573] as the molecule, how does the IC50 read?
**A.** 0.01 to 0.1 µM

**Q.** How did the IC50 turn out when `CO[C@@H](C)c1ncccc1-c1c2c3cc(ccc3n1CC(F)(F)F)-c1nc(nn1C)C[C@H](NC(=O)[C@H](C(C)C)N(C)C(=O)C1(F)CCN(C(=O)C#CC(C)(C)N(C)C)CC1)C(=O)N1CCC[C@H](N1)C(=O)OCC(C)(C)C2` (atropisomer, axis not shown) [Compound A577] was run?
**A.** < 0.01 µM

**Q.** With `CCn1c(-c2cccnc2[C@H](C)OC)c2c3cc(ccc31)N1CCO[C@@H](C[C@H](NC(=O)[C@H](C(C)C)N3CC[C@@]4(CCN(C(=O)C#CC(C)(C)N(C)C)C4)C3=O)C(=O)N3CCC[C@H](N3)C(=O)OCC(C)(C)C2)C1` (atropisomer, axis not shown) [Compound A614] as the molecule, how does the IC50 read?
**A.** 0.01 to 0.1 µM

**Q.** `CCn1c(-c2cccnc2[C@H](C)OC)c2c3cc(ccc31)-c1cccc(c1)C[C@H](NC(=O)[C@H](C(C)C)N(C)C(=O)C1(F)CCN(C(=O)C#CC(C)(C)N(C)C)CC1)C(=O)N1CCC[C@H](N1)C(=O)OCC(C)(C)C2` (atropisomer, axis not shown) [Compound A699] was tested. Which IC50 did it give?
**A.** < 0.01 µM

Same assay, conditions: Homo sapiens, NCI-H358, read-out: H358 Cell Viability assay data (K-Ras G12C, IC50, uM), Table 5

**Q.** `CCn1c(-c2cccnc2[C@H](C)OC)c2c3cc(ccc31)-c1cccc(c1)C[C@H](NC(=O)[C@H](C(C)C)N(C)C(=O)[C@H]1CCN(C(=O)C#CCN(C)C)C1)C(=O)N1CCC[C@H](N1)C(=O)OCC(C)(C)C2` (atropisomer, axis not shown) [Compound A121] was tested. Which IC50 did it give?
**A.** < 0.01 µM

**Q.** Which IC50 does the source give for `C=CS(=O)(=O)N1CC[C@H](C(=O)N(C)[C@H](C(=O)N[C@H]2Cc3cccc(c3)-c3ccc4c(c3)c(c(-c3cccnc3[C@H](C)OC)n4CC)CC(C)(C)COC(=O)[C@@H]3CCCN(N3)C2=O)C(C)C)C1` (atropisomer, axis not shown) [Compound A124] here?
**A.** < 0.01 µM

**Q.** `C=CC(=O)N1CC[C@H](C(=O)N(C)[C@H](C(=O)N[C@H]2Cc3cc(O)cc(c3)-c3ccc4c(c3)c(c(-c3cccnc3[C@H](CC)OC)n4CC)CC(C)(C)COC(=O)[C@@H]3CCCN(N3)C2=O)C(C)C)C1` (atropisomer, axis not shown) [Compound A181] was tested. Which IC50 did it give?
**A.** < 0.01 µM

**Q.** How did the IC50 turn out when `C=CC(=O)Nc1cnc(C(=O)N(C)[C@H](C(=O)N[C@H]2Cc3cccc(c3)-c3ccc4c(c3)c(c(-c3cccnc3[C@H](C)OC)n4CC)CC(C)(C)COC(=O)[C@@H]3CCCN(N3)C2=O)C(C)C)n1C` (atropisomer, axis not shown) [Compound A525] was run?
**A.** < 0.01 µM

**Q.** How did the IC50 turn out when `CCn1c(-c2cccnc2[C@H](C)OC)c2c3cc(ccc31)-c1cccc(c1)C[C@H](NC(=O)[C@H](C(C)C)N1CC[C@]3(CCN(C(=O)C#C[C@H]4COCCN4C)C3)C1=O)C(=O)N1CCC[C@H](N1)C(=O)OCC(C)(C)C2` (atropisomer, axis not shown) [Compound A592] was run?
**A.** < 0.01 µM

**Q.** Which IC50 does the source give for `C=CC(=O)N1CCO[C@H]2CCN(C(=O)N(C)[C@H](C(=O)N[C@H]3Cc4nc(cs4)-c4ccc5c(c4)c(c(-c4cccnc4[C@H](C)OC)n5CC)CC(C)(C)COC(=O)[C@@H]4CCCN(N4)C3=O)C(C)C)C[C@@H]21` (atropisomer, axis not shown) [Compound A609] here?
**A.** < 0.01 µM

**Q.** Which IC50 does the source give for `CCn1c(-c2cccnc2[C@H](C)OC)c2c3cc(ccc31)-c1cccc(c1)C[C@H](NC(=O)[C@H](C(C)C)N(C)C(=O)[C@H]1CCN(C(=O)C#CC(C)(C)N3CCC(F)(F)C3)C1)C(=O)N1CCC[C@H](N1)C(=O)OCC(C)(C)C2` (relative stereo) [Compound A325] here?
**A.** 0.1 to 1 µM

**Q.** How did the IC50 turn out when `C=CC(=O)N1CC[C@H](C(=O)N(C)[C@H](C(=O)N[C@H]2Cc3cc(O)cc(c3)-c3ccc4c(c3)c(c(-c3cc(CN(C)C)cnc3[C@H](C)OC)n4CC)CC(C)(C)COC(=O)[C@@H]3CCCN(N3)C2=O)C(C)C)C1` (single isomer, unassigned) [Compound A537] was run?
**A.** < 0.01 µM

**Q.** With `C=CC(=O)N1CC[C@H](C(=O)N(C)[C@H](C(=O)N[C@H]2Cc3cc(O)cc(c3)-c3ccc4c(c3)c(c(-c3cccnc3)n4[C@H](C)C#N)CC(C)(C)COC(=O)[C@@H]3CCCN(N3)C2=O)C(C)C)C1` [A193] as the molecule, how does the IC50 read?
**A.** 0.1 to 1 µM

Same assay, conditions: Table 5; read-out: H358 Cell Viability assay data (K-Ras G12C, IC50)

**Q.** Which IC50 does the source give for `C=CC(=O)N1CC2(CCN2C(=O)N(C)[C@H](C(=O)N[C@H]2Cc3nc(n(C)n3)-c3ccc4c(c3)c(c(-c3cccnc3[C@H](C)OC)n4CC)CC(C)(C)COC(=O)[C@@H]3CCCN(N3)C2=O)C(C)C)C1` (atropisomer, axis not shown) [Compound A612] here?
**A.** 0.1 to 1 µM

**Q.** With `CCn1c(-c2cccnc2[C@H](C)OC)c2c3cc(ccc31)-c1csc(n1)C[C@H](NC(=O)[C@H](C(C)C)N(C)C(=O)N1C[C@H]3CN(C(=O)C#CC(C)(C)N(C)C)CC[C@H]31)C(=O)N1CCC[C@H](N1)C(=O)OCC(C)(C)C2` (atropisomer, axis not shown) [Compound A624] as the molecule, how does the IC50 read?
**A.** < 0.01 µM

**Q.** `CCn1c(-c2cccnc2[C@H](C)OC)c2c3cc(ccc31)-c1csc(n1)C[C@H](NC(=O)[C@H](C(C)C)N(C)C(=O)N1C[C@@H]3CN(C(=O)C#CC(C)(C)N(C)C)CC[C@@H]31)C(=O)N1CCC[C@H](N1)C(=O)OCC(C)(C)C2` (atropisomer, axis not shown) [Compound A625] was tested. Which IC50 did it give?
**A.** 0.01 to 0.1 µM

**Q.** `CCn1c(-c2cccnc2[C@H](C)OC)c2c3cc(ccc31)-c1csc(n1)C[C@H](NC(=O)[C@H](C(C)C)N(C)C(=O)N1CCCOC13CN(C(=O)C#CC(C)(C)N(C)C)C3)C(=O)N1CCC[C@H](N1)C(=O)OCC(C)(C)C2` (atropisomer, axis not shown) [Compound A666] was tested. Which IC50 did it give?
**A.** 0.01 to 0.1 µM

**Q.** Which IC50 does the source give for `C=CC(=O)N1CC2(CCN2C(=O)N(C)[C@H](C(=O)N[C@H]2Cc3cccc(c3)-c3ccc4c(c3)c(c(-c3cccnc3[C@H](C)OC)n4CC)CC(C)(C)COC(=O)[C@@H]3CCCN(N3)C2=O)C(C)C)C1` (atropisomer, axis not shown) [Compound A684] here?
**A.** < 0.01 µM

Same assay, conditions: read-out: H358 Cell Viability assay data (K-Ras G12C, IC50); Table 5

**Q.** How did the IC50 turn out when `C=CC(=O)N1CC[C@H](C(=O)N(C)[C@H](C(=O)N[C@H]2Cc3cccc(c3)-c3ccc4c(c3)c(c(-c3cc(C5CCN(C)CC5)cnc3[C@H](C)OC)n4CC)CC(C)(C)COC(=O)[C@@H]3CCCN(N3)C2=O)C(C)C)C1` (atropisomer, axis not shown) [Compound A515] was run?
**A.** < 0.01 µM

**Q.** For `C=CC(=O)N1CC[C@H](C(=O)N(C)[C@H](C(=O)N[C@H]2Cc3nc(cs3)-c3ccc4c(c3)c(c(-c3cc(C5=CCN(C)CC5)cnc3[C@H](C)OC)n4CC)CC(C)(C)COC(=O)[C@@H]3CCCN(N3)C2=O)C(C)C)C1` (atropisomer, axis not shown) [Compound A520], which IC50 is on record?
**A.** < 0.01 µM
